According to patent US8367733B2 (Vallinex, Inc., priority 2002, dated 2013):
Where two headings read alike, the source gives them in different places.

Columns and labels:
[1] = more potent than capsaicin; cited from earlier work
[2] = tested on: radiation induced hyperalgesia; conditions: systemic, cited from earlier work
[3] = cited from earlier work
[4] = tested on: subjects with osteoarthritis of the knee; assay: Osteoarthritis of the knee safety study (Phase 1): safety, tolerability and VAS pain after intra-articular infiltration; type: in vivo, human; conditions: for patients reporting transient burning pain immediately following instillation: after 2% lignocaine
Description: The primary objective of the study was to evaluate the safety and tolerability of intra-articular capsaicin, when co-administered with intra-articular local anesthetic, compared to placebo, in subjects with end-stage osteoarthritis of the knee, already scheduled to receive knee replacements.
Study drug was stored at a temperature between 15° C. and 25° C.
The study was designed to include 16 evaluation subjects. […] Sixteen subjects completed the study.
Patients were treated randomly and in double-blind fashion in four treatment cohorts, with each cohort having a progressively longer interval between the intra-articular administration of study medication and subsequent total knee replacement (2, 4, 7, and 14 days). […] Gross and microscopic pathology analysis was completed for each treatment cohort before the next treatment coort was treated.
Each subject had 3 study visits: a Screening Day (Day −7 to −1), the Treatment Day (Day 0), and a Post-Treatment Day (scheduled for Day +2, +4, +7, or +14). On the Treatment Day the subject was randomized, pre-treatment evaluation was performed. The patients were brought into the procedure room, and a VAS pain score was taken (0 mm—no pain, 100 mm—extreme pain). Once the patient had marked his or her pain on the card, he/she was prepped for knee cannulation. Once the cannula was placed, the patient received by intra-articular infiltration, 3 mg/kg (maximum dose of 200 mg) of 2% lignocaine into the knee scheduled to be replaced.
VAS pain scores as well as verbal reports were taken immediately following administration, as well as prior to knee replacement surgery. No subjects discontinued from the study due to adverse events.
On the Post-Treatment Day, study evaluation was performed followed by the scheduled knee replacement, with intra-operative bone and soft tissue biopsies performed for subsequent examination. […] This therefore left the 3 placebo and 9 active patients from the 4 day, 7 day, and 14 day cohorts.

[5] = tested on: subjects undergoing transpositional osteotomy (bunionectomy) for hallux valgus deformity; assay: Bunionectomy efficacy study (Phase II), intra-operative infiltration into the wound; type: in vivo, human; conditions: for VAS pain score at operation site (Table 4): 1000 μg into wound, mean +/− SEM, n = 11
Description: The primary efficacy endpoint was the proportion of subjects in each treatment group requiring opioid analgesia in the first 24 hours post-operatively. The proportions were compared amongst treatment groups using the Cochran-Haenszel test. Secondary efficacy end points included: i) proportion of subjects in each treatment group requiring opioid analgesia in the first 36 hour period post-operatively (Similarly, the proportions were compared amongst treatment groups using the Cochran-Haenszel test); ii) proportion of subjects in each treatment group requiring opioid analgesia in the 10 day period post-operatively (Similarly, the proportions were compared amongst treatment groups using the Cochran-Haenszel test); iii) time to first usage of opioid analgesia in each treatment group (a survival analysis approach will be used: the product-limit (Kaplan-Meier) method will be applied to time to first usage of opioid analgesia. The median time to first usage of opioid analgesia will be estimated in both treatment groups. Pairwise comparisons will be performed to test for equality of the survival curves between the 2 treatment groups using both the log-rank and the Wilcoxon test); iv) total usage of analgesia in each treatment group (the total usage of analgesia will be compared by an analysis of variance with treatment and center as independent variables. A pairwise comparison will be performed between the treatment groups); and v) VAS assessment of pain at the site of operation in each treatment group (The VAS score at each time point will be compared by an analysis of variance with treatment and center as independent variables. A pairwise comparison will be performed between the treatment groups). […] The efficacy analysis was performed on the data obtained ten days postoperatively. The safety analysis was performed based on the safety data for the entire study, including the 6 week and 12 week follow-up periods. The blind was broken at the time the efficacy analysis was performed. However, the individual treatment assignment was available to the statistical analysis group only. All other personnel involved in the study, including the Investigator, study monitor and proprietary staff, remained blinded until the entire study was completed.
The study was designed to include 40 evaluation subjects. […] Each subject had six (6) study visits: a Screening Day (Day −28 to −1), an Operation Day (Day 0), and four (4) Follow-up visits (scheduled for Days 3, 10 and weeks 6 and 12).
On Operation Day (Day 0) the following was performed: a) Pre-operation: Prior to the initiation of an ankle block, inclusion/exclusion criteria assessment was performed. […] Immediately prior to wound closure, the Investigator slowly dripped the study medication (4 mL) from a syringe into the wound, ensuring even tissue exposure. The wound was then closed according to normal practices and procedures.
In the 24 hours following administration of study medication, vital signs (supine pulse rate and blood pressure) were recorded at 1, 2, 4 and 24 hours post administration. VAS assessment of pain at the operation site was performed at 1, 4, 8, 12 and 24 hours post administration. In those instances where VAS measurements coincide with blood sampling procedures, the VAS assessment was performed first. […] The quantity of each blood sample was 10 mL. Laboratory safety assessments, e.g., haematology, biochemistry, urinalysis were performed at 24 hours post administration. Adverse events were spontaneously reported by the subject and recorded. Rescue analgesia medication was provided to the subject if required (initially diclofenac 50 mg, repeated at 8 hourly intervals if necessary).

[6] = 10, 100, 300 μg intra-articular

In the case of C=C(C)[C@]12C[C@@H](C)[C@@]34O[C@](Cc5ccccc5)(O[C@@H]1[C@@H]3C=C(COC(=O)Cc1ccc(O)c(OC)c1)C[C@]1(O)C(=O)C(C)=C[C@@H]41)O2 [Resiniferatoxin, resiniferatoxin], the “potency compared with capsaicin” value [1] is given as 10^3-10^4 fold.

In the case of COc1cc(CNC(=O)CCCC/C=C/C(C)C)ccc1O [purified capsaicin, N-(4-hydroxy-3-methoxybenzyl)-8-methylnon-trans-6-enamide], the radiation induced hyperalgesia ([2]; final doses of 25 mg/kg or less prior to ultra violet radiation) is listed as “prevented radiation induced hyperalgesia”, the pain threshold ([2]; final doses of 25 mg/kg or less) is listed as “did not elevate the pain threshold above normal range” and the pain threshold ([2]; final doses of 50 mg/kg or greater) is listed as “pain threshold elevated”. The “solubility in alcohol, ether, benzene and chloroform” value [3] was “freely soluble”, the “patients reporting transient burning pain immediately following instillation” value ([4]; 10 μg intra-articular) was 0 of 4 and the “subjects requiring intervention for post-injection (hyper)algesia” value ([4]; 100 μg dose group (n=4)) was 1 subject. For the same compound, the “patients reporting transient burning pain immediately following instillation” value ([4]; 100 μg intra-articular) was 1 of 4, the “subjects requiring intervention for post-injection (hyper)algesia” value ([4]; 300 μg dose group (n=4)) was 4 subjects and the “patients reporting transient burning pain immediately following instillation” value ([4]; 300 μg intra-articular) was 4 of 4. The “VAS reduced, prior to administration vs day of surgery” value ([4]; 9 active patients of the 4, 7 and 14 day cohorts, doses 10-300 μg pooled) was 62±14%, the “effects on laboratory safety parameters or vital signs” value [4, 6] was “no treatment related effects” and the “effects on soft tissue, cartilage, or bone upon histopathological examination” value [4, 6] was “no treatment related effects”. The “gross and microscopic pathology” value [4, 6] was “normal”, the “signs of erythema, edema, or hemorrhage at the site of injection” value [4, 6] was “no treatment related signs” and the systemic side effects [4, 6] was “No treatment related systemic side effects were seen”. The tolerability [4, 6] was “well tolerated at all dose levels”, the “median decrease from baseline to pre-operative time point in VAS for pain at the target knee, compared with placebo” value ([4]; all 3 capsaicin dose groups) was “substantially greater” and the “average duration of post injection hyperalgesia” value ([4]; all cases) was “less than thirty minutes”. The “onset of post-administration (hyper)algesia after administration” value ([4]; all episodes, 100 μg and 300 μg) was at most 5 min, the “indication of efficacy on VAS pain” value ([4]; any of the dose levels (10 μg, 100 μg, 300 μg)) was “No clear treatment related indication of efficacy” and the “effect on pain score and use of rescue” value ([5]; 1000 μg into the wound prior to wound closure) was “reduced both pain score as well as the use of rescue”. The “VAS pain score at operation site (Table 4)” value (“VAS pain score” for short) ([5]; 8 hr) was 5.5 +/− 2.3, the “VAS pain score” value ([5]; 12 hr) was 8.2 +/− 3.8 and the “VAS pain score” value ([5]; 24 hr) was 1.9 +/− 1.0. The “VAS pain score” value ([5]; 48 hr) was 5.9 +/− 2.5 and the “study subjects requiring rescue” value ([5]; 1000 μg prior to wound closure, within 72 hours, n=11, P<0.05 vs placebo) was 40%.
